Measurements as given in patent US20250163104A1, “MACROCYCLIC IMMUNOMODULATORS” (priority 2021, published 2025).
Where a SMILES comes first, the peptide text is derived from it. Bridges are numbered along the chain shown (N, C = ends). [ ]: non-standard residue; d: D form. Bip = N[C@@H](Cc1ccc(-c2ccccc2)cc1)C(=O)O; Cit = NC(=O)NCCC[C@H](N)C(=O)O; Orn = NCCC[C@H](N)C(=O)O; Dab = NCC[C@H](N)C(=O)O

target: T1, human PD-1 / PD-L1-Ig binding on Jurkat cell line over-expressing human PD-1 (Jurkat-PD-1) (Homo sapiens, UniProt Q15116); test: Jurkat-PD-1 Cell Binding High-Content Screening Assay (CBA); format: cell-based; settings: Jurkat-PD-1 cells, PE-labeled PD-L1-Ig 20 nM final; read-out: Jurkat HPD1_PDL1 IC50
T1 construct: expressed in transfected cells; host or cells: Jurkat
Procedure, shortened: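 Binding of fluorescent PD-L1-Ig (phycoerythrin linked via the Ig tag, 20 nM final) to PD-1-overexpressing Jurkat cells was imaged after a 2 h, 37° C compound pretreatment and 1 hour ligand incubation.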

T1 sequence (Q15116 25-288): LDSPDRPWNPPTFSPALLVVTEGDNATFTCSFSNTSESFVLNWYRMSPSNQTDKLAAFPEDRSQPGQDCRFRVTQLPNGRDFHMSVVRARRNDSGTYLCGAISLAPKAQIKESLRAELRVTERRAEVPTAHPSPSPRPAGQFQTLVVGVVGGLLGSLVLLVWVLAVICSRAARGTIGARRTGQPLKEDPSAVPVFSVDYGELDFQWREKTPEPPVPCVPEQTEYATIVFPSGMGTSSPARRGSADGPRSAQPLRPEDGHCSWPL

| Structure (SMILES) | IC50 [nM] |
| --- | --- |
| CC(C)C[C@@H]1NC(=O)[C@H](CCN)NC(=O)[C@@H](CC(C)C)NC(=O)[C@H](CCN)NC(=O)[C@H](CCCNC(N)=O)NC(=O)[C@H](Cc2ccc(-c3ccccc3)cc2)NC(=O)[C@H](C(C)C)NC(=O)[C@H](Cc2c[nH]c3ccccc23)NC(=O)[C@H](CC(=O)O)NC(=O)[C@H](Cc2ccc(O)cc2)NC(=O)[C@H](CC(N)=O)NC(=O)CSC[C@@H](C(=O)NCC(N)=O)NC(=O)[C@H](CO)NC(=O)[C@H](C(C)C)NC1=O [Compound 1114] ({CH2CO}-NYDWV[Bip][Cit][Dab][dL][Dab]LVSCG-NH2; thioether N-14) | 31.6 |
| CC(C)C[C@@H]1NC(=O)[C@H](CCN)NC(=O)[C@@H](CC(C)C)NC(=O)[C@H](CCCN)NC(=O)[C@H](CCCNC(N)=O)NC(=O)[C@H](Cc2ccc(-c3ccccc3)cc2)NC(=O)[C@H](C(C)C)NC(=O)[C@H](Cc2c[nH]c3ccccc23)NC(=O)[C@H](CC(=O)O)NC(=O)[C@H](Cc2ccc(O)cc2)NC(=O)[C@H](CC(N)=O)NC(=O)CSC[C@@H](C(=O)NCC(N)=O)NC(=O)[C@H]([C@@H](C)O)NC(=O)[C@H](C(C)C)NC1=O [Compound 1115] ({CH2CO}-NYDWV[Bip][Cit][Orn][dL][Dab]LVTCG-NH2; thioether N-14) | 79.6 |
| CC(C)C[C@@H]1NC(=O)[C@H](CCN)NC(=O)[C@@H](CC(C)C)NC(=O)[C@H](CCCCN)NC(=O)[C@H](CCCNC(N)=O)NC(=O)[C@H](Cc2ccc(-c3ccccc3)cc2)NC(=O)[C@H](C(C)C)NC(=O)[C@H](Cc2c[nH]c3ccccc23)NC(=O)[C@H](CC(=O)O)NC(=O)[C@H](Cc2ccc(O)cc2)NC(=O)[C@H](CC(N)=O)NC(=O)CSC[C@@H](C(=O)NCC(N)=O)NC(=O)[C@H]([C@@H](C)O)NC(=O)[C@H](C(C)C)NC1=O [Compound 1116] ({CH2CO}-NYDWV[Bip][Cit]K[dL][Dab]LVTCG-NH2; thioether N-14) | 38.5 |
| CC(C)C[C@@H]1NC(=O)[C@H](CCN)NC(=O)[C@@H](CC(C)C)NC(=O)[C@H](CCN)NC(=O)[C@H](CCCNC(N)=O)NC(=O)[C@H](Cc2ccc(-c3ccccc3)cc2)NC(=O)[C@H](C(C)C)NC(=O)[C@H](Cc2c[nH]c3ccccc23)NC(=O)[C@H](CC(=O)O)NC(=O)[C@H](Cc2ccc(O)cc2)NC(=O)[C@H](CC(N)=O)NC(=O)CSC[C@@H](C(=O)NCC(N)=O)NC(=O)[C@H]([C@@H](C)O)NC(=O)[C@H](C(C)C)NC1=O [Compound 1117] ({CH2CO}-NYDWV[Bip][Cit][Dab][dL][Dab]LVTCG-NH2; thioether N-14) | 39.3 |
| CC[C@H](C)[C@@H]1NC(=O)[C@H](Cc2ccc(-c3ccccc3)cc2)NC(=O)[C@H](C(C)C)NC(=O)[C@H](Cc2c[nH]c3ccccc23)NC(=O)[C@H](CC(=O)O)NC(=O)[C@H](Cc2ccc(O)cc2)NC(=O)[C@H](CC(N)=O)NC(=O)CSC[C@@H](C(=O)N[C@@H](C)C(N)=O)NC(=O)[C@H](CO)NC(=O)[C@H](C(C)C)NC(=O)[C@H](CC(C)C)NC(=O)[C@H](CCN)NC(=O)[C@@H](CC(C)C)NC(=O)[C@H](CCCN)NC1=O [Compound 1118] ({CH2CO}-NYDWV[Bip]I[Orn][dL][Dab]LVSCA-NH2; thioether N-14) | 23.1 |
| CC[C@H](C)[C@@H]1NC(=O)[C@H](Cc2ccc(-c3ccccc3)cc2)NC(=O)[C@H](C(C)C)NC(=O)[C@H](Cc2c[nH]c3ccccc23)NC(=O)[C@H](CC(=O)O)NC(=O)[C@H](Cc2ccc(O)cc2)NC(=O)[C@H](CC(N)=O)NC(=O)CSC[C@@H](C(=O)N[C@@H](C)C(N)=O)NC(=O)[C@H](CO)NC(=O)[C@H](C(C)C)NC(=O)[C@H](CC(C)C)NC(=O)[C@H](CCN)NC(=O)[C@@H](CC(C)C)NC(=O)[C@H](CCCCN)NC1=O [Compound 1119] ({CH2CO}-NYDWV[Bip]IK[dL][Dab]LVSCA-NH2; thioether N-14) | 13.3 |
| CC[C@H](C)[C@@H]1NC(=O)[C@H](Cc2ccc(-c3ccccc3)cc2)NC(=O)[C@H](C(C)C)NC(=O)[C@H](Cc2c[nH]c3ccccc23)NC(=O)[C@H](CC(=O)O)NC(=O)[C@H](Cc2ccc(O)cc2)NC(=O)[C@H](CC(N)=O)NC(=O)CSC[C@@H](C(=O)N[C@@H](C)C(N)=O)NC(=O)[C@H](CO)NC(=O)[C@H](C(C)C)NC(=O)[C@H](CC(C)C)NC(=O)[C@H](CCN)NC(=O)[C@@H](CC(C)C)NC(=O)[C@H](CCN)NC1=O [Compound 1120] ({CH2CO}-NYDWV[Bip]I[Dab][dL][Dab]LVSCA-NH2; thioether N-14) | 11.5 |
| CC[C@H](C)[C@@H]1NC(=O)[C@H](Cc2ccc(-c3ccccc3)cc2)NC(=O)[C@H](C(C)C)NC(=O)[C@H](Cc2c[nH]c3ccccc23)NC(=O)[C@H](CC(=O)O)NC(=O)[C@H](Cc2ccc(O)cc2)NC(=O)[C@H](CC(N)=O)NC(=O)CSC[C@@H](C(=O)NCC(N)=O)NC(=O)[C@H](CO)NC(=O)[C@H](C(C)C)NC(=O)[C@H](CC(C)C)NC(=O)[C@H](CCN)NC(=O)[C@@H](CC(C)C)NC(=O)[C@H](CCCN)NC1=O [Compound 1121] ({CH2CO}-NYDWV[Bip]I[Orn][dL][Dab]LVSCG-NH2; thioether N-14) | 20.9 |
| CC[C@H](C)[C@@H]1NC(=O)[C@H](Cc2ccc(-c3ccccc3)cc2)NC(=O)[C@H](C(C)C)NC(=O)[C@H](Cc2c[nH]c3ccccc23)NC(=O)[C@H](CC(=O)O)NC(=O)[C@H](Cc2ccc(O)cc2)NC(=O)[C@H](CC(N)=O)NC(=O)CSC[C@@H](C(=O)NCC(N)=O)NC(=O)[C@H](CO)NC(=O)[C@H](C(C)C)NC(=O)[C@H](CC(C)C)NC(=O)[C@H](CCN)NC(=O)[C@@H](CC(C)C)NC(=O)[C@H](CCCCN)NC1=O [Compound 1122] ({CH2CO}-NYDWV[Bip]IK[dL][Dab]LVSCG-NH2; thioether N-14) | 16.2 |
| CC[C@H](C)[C@@H]1NC(=O)[C@H](Cc2ccc(-c3ccccc3)cc2)NC(=O)[C@H](C(C)C)NC(=O)[C@H](Cc2c[nH]c3ccccc23)NC(=O)[C@H](CC(=O)O)NC(=O)[C@H](Cc2ccc(O)cc2)NC(=O)[C@H](CC(N)=O)NC(=O)CSC[C@@H](C(=O)NCC(N)=O)NC(=O)[C@H](CO)NC(=O)[C@H](C(C)C)NC(=O)[C@H](CC(C)C)NC(=O)[C@H](CCN)NC(=O)[C@@H](CC(C)C)NC(=O)[C@H](CCN)NC1=O [Compound 1123] ({CH2CO}-NYDWV[Bip]I[Dab][dL][Dab]LVSCG-NH2; thioether N-14) | 14.8 |
| CC[C@H](C)[C@@H]1NC(=O)[C@H](Cc2ccc(-c3ccccc3)cc2)NC(=O)[C@H](C(C)C)NC(=O)[C@H](Cc2c[nH]c3ccccc23)NC(=O)[C@H](CC(=O)O)NC(=O)[C@H](Cc2ccc(O)cc2)NC(=O)[C@H](CC(N)=O)NC(=O)CSC[C@@H](C(=O)NCC(N)=O)NC(=O)[C@H]([C@@H](C)O)NC(=O)[C@H](C(C)C)NC(=O)[C@H](CC(C)C)NC(=O)[C@H](CCN)NC(=O)[C@@H](CC(C)C)NC(=O)[C@H](CCCN)NC1=O [Compound 1124] ({CH2CO}-NYDWV[Bip]I[Orn][dL][Dab]LVTCG-NH2; thioether N-14) | 24.3 |
| CC[C@H](C)[C@@H]1NC(=O)[C@H](Cc2ccc(-c3ccccc3)cc2)NC(=O)[C@H](C(C)C)NC(=O)[C@H](Cc2c[nH]c3ccccc23)NC(=O)[C@H](CC(=O)O)NC(=O)[C@H](Cc2ccc(O)cc2)NC(=O)[C@H](CC(N)=O)NC(=O)CSC[C@@H](C(=O)NCC(N)=O)NC(=O)[C@H]([C@@H](C)O)NC(=O)[C@H](C(C)C)NC(=O)[C@H](CC(C)C)NC(=O)[C@H](CCN)NC(=O)[C@@H](CC(C)C)NC(=O)[C@H](CCN)NC1=O [Compound 1126] ({CH2CO}-NYDWV[Bip]I[Dab][dL][Dab]LVTCG-NH2; thioether N-14) | 23.9 |
| CC(C)C[C@@H]1NC(=O)[C@H](CCN)NC(=O)[C@@H](CC(C)C)NC(=O)[C@H](CCCN)NC(=O)[C@H](C(C)C)NC(=O)[C@H](Cc2ccc(-c3ccccc3)cc2)NC(=O)[C@H](C(C)C)NC(=O)[C@H](Cc2c[nH]c3ccccc23)NC(=O)[C@H](CC(=O)O)NC(=O)[C@H](Cc2ccc(O)cc2)NC(=O)[C@H](CC(N)=O)NC(=O)CSC[C@@H](C(=O)N[C@@H](C)C(N)=O)NC(=O)[C@H](CO)NC(=O)[C@H](C(C)C)NC1=O [Compound 1127] ({CH2CO}-NYDWV[Bip]V[Orn][dL][Dab]LVSCA-NH2; thioether N-14) | 15 |
| CC(C)C[C@@H]1NC(=O)[C@H](CCN)NC(=O)[C@@H](CC(C)C)NC(=O)[C@H](CCCCN)NC(=O)[C@H](C(C)C)NC(=O)[C@H](Cc2ccc(-c3ccccc3)cc2)NC(=O)[C@H](C(C)C)NC(=O)[C@H](Cc2c[nH]c3ccccc23)NC(=O)[C@H](CC(=O)O)NC(=O)[C@H](Cc2ccc(O)cc2)NC(=O)[C@H](CC(N)=O)NC(=O)CSC[C@@H](C(=O)N[C@@H](C)C(N)=O)NC(=O)[C@H](CO)NC(=O)[C@H](C(C)C)NC1=O [Compound 1128] ({CH2CO}-NYDWV[Bip]VK[dL][Dab]LVSCA-NH2; thioether N-14) | 17.6 |
| CC[C@H](C)[C@@H]1NC(=O)[C@H](Cc2ccc(-c3ccccc3)cc2)NC(=O)[C@H](C(C)C)NC(=O)[C@H](Cc2c[nH]c3ccccc23)NC(=O)[C@H](CC(=O)O)NC(=O)[C@H](Cc2ccc(O)cc2)NC(=O)[C@H](CC(N)=O)NC(=O)CSC[C@@H](C(=O)N[C@@H](C)C(N)=O)NC(=O)[C@H]([C@@H](C)O)NC(=O)[C@H](C(C)C)NC(=O)[C@H](CC(C)C)NC(=O)[C@H](CCCCN)NC(=O)[C@@H](CC(C)C)NC(=O)[C@H](CCCN)NC1=O [Compound 1129] ({CH2CO}-NYDWV[Bip]I[Orn][dL]KLVTCA-NH2; thioether N-14) | 19.7 |
| CC(C)C[C@@H]1NC(=O)[C@H](CCCCN)NC(=O)[C@@H](CC(C)C)NC(=O)[C@H](CCCN)NC(=O)[C@H](C(C)C)NC(=O)[C@H](Cc2ccc(-c3ccccc3)cc2)NC(=O)[C@H](C(C)C)NC(=O)[C@H](Cc2c[nH]c3ccccc23)NC(=O)[C@H](CC(=O)O)NC(=O)[C@H](Cc2ccc(O)cc2)NC(=O)[C@H](CC(N)=O)NC(=O)CSC[C@@H](C(=O)N[C@@H](C)C(N)=O)NC(=O)[C@H]([C@@H](C)O)NC(=O)[C@H](C(C)C)NC1=O [Compound 1130] ({CH2CO}-NYDWV[Bip]V[Orn][dL]KLVTCA-NH2; thioether N-14) | 19.5 |
